According to ChEMBL document CHEMBL1155367, “Design and synthesis of new stabilized combi-triazenes for targeting solid tumors expressing the epidermal growth factor receptor (EGFR) or its closest homologue HER2” (Bioorg Med Chem Lett, 2009):
The source made the active and inactive calls. No cut-off for these calls is given here.

How the values were obtained:
[1] = molecular target: Epidermal growth factor receptor (Homo sapiens, UniProt P00533); assay: Inhibition of EGFR-mediated poly(L-glutamic acid L-tyrosine) phosphorylation
NIH3T3 = assay: Growth inhibition of mouse NIH/3T3 cells expressing erB2 gene; format: functional, cell-based
MDA-MB-468 = assay: Induction of DNA damage in human MDA-MB-468 cells assessed as tail movements by comet assay; format: functional, cell-based
[2] = Stability assessed as degradation to FD105 at 37 degC by fluorescence; format: physicochemical

Sequence of Epidermal growth factor receptor (P00533 whole entry): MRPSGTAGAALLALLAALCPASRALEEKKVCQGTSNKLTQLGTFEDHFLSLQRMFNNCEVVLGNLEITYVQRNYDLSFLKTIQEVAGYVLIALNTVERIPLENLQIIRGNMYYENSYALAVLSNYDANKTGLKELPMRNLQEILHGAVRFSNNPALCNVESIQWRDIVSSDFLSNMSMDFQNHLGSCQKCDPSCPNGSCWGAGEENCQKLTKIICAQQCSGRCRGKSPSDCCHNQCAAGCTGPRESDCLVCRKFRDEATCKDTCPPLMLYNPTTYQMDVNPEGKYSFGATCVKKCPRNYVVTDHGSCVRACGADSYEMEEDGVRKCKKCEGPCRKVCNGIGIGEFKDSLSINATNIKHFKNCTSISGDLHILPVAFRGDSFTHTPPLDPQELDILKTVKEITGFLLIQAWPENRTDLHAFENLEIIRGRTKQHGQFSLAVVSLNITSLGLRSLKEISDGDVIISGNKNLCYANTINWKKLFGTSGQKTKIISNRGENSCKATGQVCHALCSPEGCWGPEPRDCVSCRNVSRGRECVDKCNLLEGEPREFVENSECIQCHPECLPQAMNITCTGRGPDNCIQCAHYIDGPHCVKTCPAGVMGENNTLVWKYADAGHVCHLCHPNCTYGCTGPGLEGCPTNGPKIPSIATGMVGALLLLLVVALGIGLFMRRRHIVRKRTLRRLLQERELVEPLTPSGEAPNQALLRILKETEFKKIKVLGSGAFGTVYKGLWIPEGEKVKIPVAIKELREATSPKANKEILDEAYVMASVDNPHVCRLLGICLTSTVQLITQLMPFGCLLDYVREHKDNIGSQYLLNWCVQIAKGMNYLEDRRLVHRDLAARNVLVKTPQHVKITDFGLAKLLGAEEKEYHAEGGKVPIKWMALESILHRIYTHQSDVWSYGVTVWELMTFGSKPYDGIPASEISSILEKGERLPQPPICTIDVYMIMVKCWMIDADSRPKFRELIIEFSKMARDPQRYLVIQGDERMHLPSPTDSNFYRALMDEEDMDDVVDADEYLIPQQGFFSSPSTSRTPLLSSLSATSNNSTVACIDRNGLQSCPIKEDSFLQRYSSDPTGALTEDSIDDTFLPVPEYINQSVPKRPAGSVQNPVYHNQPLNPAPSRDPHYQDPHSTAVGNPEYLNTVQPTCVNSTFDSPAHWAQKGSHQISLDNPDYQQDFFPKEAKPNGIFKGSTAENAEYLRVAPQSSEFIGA

IC50 [1] [nM] | Stability [2] | SMILES | IC50 (NIH3T3) [nM] | Activity (MDA-MB-468)
630 | Stable | CC(=O)OCOC(=O)N(C)/N=N/c1ccc2ncnc(Nc3cccc(Cl)c3)c2c1 | 1500 | Dose-dependent effect
240 | Unstable | CC(=O)OCN(C)/N=N/c1ccc2ncnc(Nc3cccc(Cl)c3)c2c1 | – | –
720 | Stable | C=COC(=O)N(C)/N=N/c1ccc2ncnc(Nc3cccc(Cl)c3)c2c1 | 2370 | inactive
180 | – | C=COC(=O)N(CCN(C)C)/N=N/c1ccc2ncnc(Nc3cccc(Cl)c3)c2c1 | 2280 | Dose-dependent effect
390 | – | CN(/N=N/c1ccc2ncnc(Nc3cccc(Cl)c3)c2c1)C(=O)OCCl | 4940 | Dose-dependent effect

SMILES | IC50 [1] [nM] | Stability [2] | IC50 (NIH3T3) [nM] | Activity (MDA-MB-468)
CN(/N=N/c1ccc2ncnc(Nc3cccc(Cl)c3)c2c1)C(=O)Oc1ccc([N+](=O)[O-])cc1 | 770 | Stable | 3790 | Dose-dependent effect
